Reference: the supplement of paper PMC10949913

Key:
Experiment in all cases: area under concentration-response curve (viability) (AUC (a.u.)); higher = less active
Details in all cases: 48 h
NCI-H295R = system: NCI-H295R
How it was run: (§1)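 Three adrenocortical carcinoma cell lines were seeded at 500–1,000 cells/well in 5 µL medium in 1,536-well plates. 23 nL of each MIPE 5.0 library compound was added at 11 concentrations. After 48 h (per the protocol name), CellTiter-Glo was added for 15 minutes at room temperature and luminescence was read. Signals were normalised per plate to vehicle and empty-well controls. AC50 and area under the curve came from fitted concentration-response curves, keeping only inhibitory or non-responding curve classes.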

CU-ACC2 = system: CU-ACC2
How it was run: as §1

CU-ACC1 = system: CU-ACC1
How it was run: as §1

Row | SMILES | area under concentration-response curve (NCI-H295R) | area under concentration-response curve (CU-ACC2) | area under concentration-response curve (CU-ACC1)
1 | CC(C)(C(=O)NCC(F)(F)C(F)(F)F)C(=O)N[C@@H]1C(=O)Nc2ccccc2-c2ccccc21 | 459 | 500 | 413
2 | Cc1ccc(/C=N/NC(=O)c2ccccc2Oc2ccccc2)o1 | 421 | 491 | 440
3 | NC/1=N/C(=O)C2=C([NH]C=C2CCC3=CC=C(C=C3)C(=O)N[C@@H](CCC(O)=O)C(O)=O)N1 | 537 | 590 | 523
4 | COc1cc([C@@H](CC(=O)O)c2ccc(C)c(CN3C[C@@H](C)Oc4ccccc4[S+]3(=O)[O-])c2)cc2nnn(C)c12 | 348 | 295 | 341
5 | N#Cc1ccc(C2CCCc3cncn32)cc1 (stereo not given) | 479 | 544 | 503
6 | C[C@]12CC[C@H]3[C@@H](CCC/4=C/C(=O)CC[C@]34C)[C@@H]1CC[C@@H]2OC(=O)CCC5CCCC5 | 569 | 618 | 581
7 | COc1cc2ncnc(Nc3cc(Br)c(O)c(Br)c3)c2cc1OC | 581 | 650 | 523
8 | Cc1ccc(-c2ccc(C)cn2)nc1 | 384 | 342 | 405
9 | Cc1nc2ccc(-n3ncc(C(=O)c4cc5ccccc5[nH]4)c3N)cc2[nH]1 | 519 | 595 | 550
10 | OC[C@H]1O[C@@H](OC2=CC3=C(C=C2)C(=O)\C(=C/O3)C4=CC=C(O)C=C4)[C@H](O)[C@@H](O)[C@@H]1O | 576 | 591 | 551
11 | C[C@@H]1CC[C@H]2[C@@H](C)C(=O)O[C@@H]3O[C@@]4(C)CC[C@@H]1[C@]32OO4 | 556 | 604 | 547
12 | C[C@@H]1CCN(C(=O)N2CCCC2)C[C@@H]1N(C)c1ncnc2[nH]ccc12 | 505 | 562 | 477
13 | CCOC(=O)[C@H](CCc1ccccc1)N[C@H]1CS[C@H](c2cccs2)CN(CC(=O)O)C1=O.Cl | 541 | 584 | 513
14 | Cc1[nH]nc(C(F)(F)F)c1Cc1sc2c(c1C(=O)N1C[C@](C)(O)CO1)c(=O)n(C)c(=O)n2C(C)C | 509 | 552 | 431
15 | Nc1cccc(-c2cc3c(Oc4cccc(O)c4)ncnc3[nH]2)c1 | 530 | 534 | 524
16 | CCCCCCCCCCCCCCCCCCCCCCO | 525 | 562 | 538
17 | CC[N+](CC)(CC)CCOc1cccc(OCC[N+](CC)(CC)CC)c1OCC[N+](CC)(CC)CC | 474 | 472 | 412
18 | CC(N[C@H]1C[C@@H]1c1ccccc1)c1ccc2c(c1)OCCO2 (stereo not given in full) | 432 | 453 | 432

Row | SMILES | area under concentration-response curve (NCI-H295R) | area under concentration-response curve (CU-ACC2) | area under concentration-response curve (CU-ACC1)
19 | C[C@H]1CC[C@H](n2c3cnccc3c3cnc(Nc4ccc5c(n4)CCN(C(=O)CO)C5)nc32)CC1 | 596 | 622 | 601
20 | CC(=O)O[C@@]12CO[C@@H]1C[C@H](O)[C@]3(C)[C@@H]2[C@H](OC(=O)C4=CC=CC=C4)[C@]5(O)C[C@H](O)/C(=C(/[C@@H](O)C3=O)C5(C)C)C | 491 | 539 | 507
21 | Cc1nnc(N[S+](=O)([O-])c2ccc(N)cc2)s1 | 546 | 591 | 496
22 | F\C1=C\N(C2CCCO2)C(=O)NC1=O (stereo not given) | 511 | 612 | 512
23 | CCC(C)(Oc1ccc(C2(c3ccc(OC(C)(CC)C(=O)O)cc3)CCCCC2)cc1)C(=O)O (stereo not given) | 470 | 572 | 500
24 | NC1=NC(=C(C#N)C(=N1)N)N[C@@H](C2CC2)\C3=N\C4=C(C(=CC=C4F)Cl)C(=O)N3C5=CC=CN=C5 | 526 | 570 | 511
25 | CC1=CC(=O)c2ccccc2C1=O | 501 | 530 | 495
26 | COc1cc2ncnc(Nc3ccc(F)c(Cl)c3)c2cc1OCCCN1CCOCC1 | 594 | 624 | 562
27 | c1ccc2c(CN3CCNCC3)cccc2c1 | 580 | 647 | 525
28 | CCC(=O)O[C@@]1([C@H](C)C[C@H]2[C@@H]3C[C@H](F)\C4=C\C(=O)\C=C/[C@]4(C)[C@@]3(F)[C@@H](O)C[C@]12C)C(=O)SCF | 510 | 484 | 372
29 | CC(=O)NC(C)c1ccc(Oc2ccc(OC(C)C)cc2)cc1 (stereo not given) | 547 | 605 | 539
30 | NC(=O)c1cccc(-c2cccc(OC(=O)NC3CCCCC3)c2)c1 | 470 | 485 | 480
31 | Nc1nc(-c2nn(Cc3ccccc3F)c3ncccc23)ncc1C1CC1 | 544 | 533 | 538
32 | CNC(=O)c1ccc(-c2cnc3ncc(Cc4ccc5ncccc5c4)n3n2)cc1F | 511 | 520 | 481
33 | CC(C)C[C@@H](N)[C@H](O)C(=O)N[C@H](C(=O)N[C@H](C(=O)N[C@@H](CC(=O)O)C(=O)O)C(C)C)C(C)C | 549 | 530 | 544
34 | CCCCCN(C)CCC(O)(P(=O)([O-])O)P(=O)(O)O | 611 | 590 | 612
35 | O=[N+]([O-])c1cn2c(n1)OC[C@@H](OCc1ccc(OC(F)(F)F)cc1)C2 | 523 | 574 | 528
